From US6592867B2, “Antimicrobial composition containing an oxidoreductase and an enhancer of the N-hydroxyanilide-type” (Novozymes A/S, priority 1998, dated 2003)

Experiments:
Assay type in all cases: cell-based
[1] = test system: Pseudomonas fluorescens; assay: Bactericidal activity of phenol oxidizing enzyme plus enhancing agent, surviving cells enumerated by Malthus (Examples 1 and 3); conditions: for Bactericidal activity (reduction in living cell number) / Bactericidal activity: 20 min, 40° C.; for Cell reduction: enhancing agent 0.2 mM, hydrogen peroxide 0.5 mM, rCiP 3 POXU/ml, total kill
Procedure: (§1) Antimicrobial activity was evaluated in 0.05 M MES-buffer (Sigma M8250) (pH 6) or 0.05 HEPES-buffer (Sigma H3375) (pH 8); buffers were sterilised by filter sterilisation. The antimicrobial activity was determined against Pseudomonas fluorescens (Gram et al. 1990, International Journal of Food Microbiology 10: 303-316) and Staphylococcus epidermidis (DSM 20042). Cells were grown in Tryptone Soya Broth (Oxoid CM129) at 30° C. (S. epidermidis) or 25° C. (P. fluorescens) for 24 h and diluted in the MES-buffer to a final cell concentration of approximately 10^6 cfu/ml. The cell suspensions were mixed with rCiP (3 POXU/ml), enhancing agent (0.2 mM) and hydrogen peroxide (0.5 mM) for 20 min at 40° C. The bactericidal activity was determined by incubation in Malthus. Detection times measured by the Malthus instrument were converted to cfu/ml by a calibration curve. Either direct or Indirect Malthus measurements were used when enumerating total survival cells (Malthus Flexi M2060, Malthus Instrument Limited). By the direct measurements, the cell metabolism was determined by conductance measurements in the growth substrate. By the indirect measurements, 3 ml of growth medium was transferred to the outer chamber of the indirect Malthus cells, and 0.5 ml of sterile KOH (0.1 M) was transferred to the inner chamber. The cell suspensions were after enzyme treatment transferred to the outer chamber of the Malthus cell. As cells are growing in the outer chamber they produce CO2 which will dissolve in the KOH in the inner chamber and thereby change the conductance of the KOH. The amount of CO2 formed by the respiring cells surviving the enzyme treatment was used for estimating the number of viable cells. When the conductance change is measurable by the Malthus, a detection time (dt) will be recorded. The dt's were converted to colony counts by use of a calibration curve relating cfu/ml to dt (Johansen et al. 1995. Journal of Applied Bacteriology 78:297-303, Johansen et al. 1997, Applied and Environmental Microbiology 63:3724-3728). Antibacterial activity of Coprinus cinereus peroxidase (rCiP), Polyporus pinsitus laccase (rPpL), Coprinus cinereus laccase (rCcL) and Rhizoctonia solani laccase (rRsL) (as described in WO 95/07988) was determined with different enhancing agents at pH 6 and 8 (buffers; see Example 1). The rCiP was combined with 0.5 mM hydrogen peroxide. Antimicrobial activity of rCiP and rPpL was determined against Pseudomonas fluorescens (Gram et al. 1990, International Journal of Food Microbiology 10:303-316), whereas antimicrobial activity of rCcL and rRsL was determined against Pseudomonas aeruginosa (ATCC 10145). The bactericidal activity was determined as described in example 1. The results are shown as the reduction in living cell number. Thus, a reduction of 4 correspond to a 4 log reduction of living cells e.g. from 10^6 CFU/ml to 10^2 CFU/ml.

[2] = test system: Pseudomonas aeruginosa (ATCC 10145); assay: Bactericidal activity of laccase plus enhancing agent, surviving cells enumerated by Malthus (Examples 2 and 3)
Procedure: as §1, with “The antimicrobial” for “Antimicrobial activity was evaluated in 0.05 M MES-buffer (Sigma M8250) (pH 6) or 0.05 HEPES-buffer (Sigma H3375) (pH 8); buffers were sterilised by filter sterilisation. The antimicrobial”, “activity of Polyporus pinsitus laccase (rPpL), obtained as described in WO 96/00290), and Coprinus cinereus laccase (rCcL), obtained as described in WO 97/08325, was determined with N-hydroxyacetanilide as enhancing agent against Pseudomonas aeruginosa (ATCC 10145), Enterobacter aerogenes (ATCC 13048) and Enterococcus faecalis (DSM 2570). The bactericidal activity was determined as described in Example 1, the antimicrobial activity of rPpL (1 mg/L) was evaluated at pH 6, whereas rCcL (1 mg/L) was evaluated at pH 8. Antibacterial activity of Coprinus cinereus” for “activity of Coprinus cinereus”

[3] = test system: Enterococcus faecalis (DSM 2570); assay: Bactericidal activity of laccase plus N-hydroxyacetanilide, Malthus (Example 2); conditions: 20 min, 40° C.
Procedure: (§2) The antimicrobial activity was determined against Pseudomonas fluorescens (Gram et al. 1990, International Journal of Food Microbiology 10: 303-316) and Staphylococcus epidermidis (DSM 20042). Cells were grown in Tryptone Soya Broth (Oxoid CM129) at 30° C. (S. epidermidis) or 25° C. (P. fluorescens) for 24 h and diluted in the MES-buffer to a final cell concentration of approximately 10^6 cfu/ml. The cell suspensions were mixed with rCiP (3 POXU/ml), enhancing agent (0.2 mM) and hydrogen peroxide (0.5 mM) for 20 min at 40° C. The bactericidal activity was determined by incubation in Malthus. Detection times measured by the Malthus instrument were converted to cfu/ml by a calibration curve. Either direct or Indirect Malthus measurements were used when enumerating total survival cells (Malthus Flexi M2060, Malthus Instrument Limited). By the direct measurements, the cell metabolism was determined by conductance measurements in the growth substrate. By the indirect measurements, 3 ml of growth medium was transferred to the outer chamber of the indirect Malthus cells, and 0.5 ml of sterile KOH (0.1 M) was transferred to the inner chamber. The cell suspensions were after enzyme treatment transferred to the outer chamber of the Malthus cell. As cells are growing in the outer chamber they produce CO2 which will dissolve in the KOH in the inner chamber and thereby change the conductance of the KOH. The amount of CO2 formed by the respiring cells surviving the enzyme treatment was used for estimating the number of viable cells. When the conductance change is measurable by the Malthus, a detection time (dt) will be recorded. The dt's were converted to colony counts by use of a calibration curve relating cfu/ml to dt (Johansen et al. 1995. Journal of Applied Bacteriology 78:297-303, Johansen et al. 1997, Applied and Environmental Microbiology 63:3724-3728). Antibacterial activity of Polyporus pinsitus laccase (rPpL), obtained as described in WO 96/00290), and Coprinus cinereus laccase (rCcL), obtained as described in WO 97/08325, was determined with N-hydroxyacetanilide as enhancing agent against Pseudomonas aeruginosa (ATCC 10145), Enterobacter aerogenes (ATCC 13048) and Enterococcus faecalis (DSM 2570). The bactericidal activity was determined as described in Example 1, the antimicrobial activity of rPpL (1 mg/L) was evaluated at pH 6, whereas rCcL (1 mg/L) was evaluated at pH 8.

[4] = test system: Enterobacter aerogenes (ATCC 13048); assay: as above; conditions: for Bactericidal activity (dose-response): 20 min, 40° C.
Procedure: as §2

[5] = rCiP = 3 POXU/ml + 0.5 mM hydrogen peroxide, pH 6
[6] = rCiP = 3 POXU/ml + 0.5 mM hydrogen peroxide, pH 8
[7] = rCcL = 5 mg/L, pH 6, 20 min, 40° C.
[8] = rCcL = 5 mg/L, pH 8, 20 min, 40° C.
[9] = rRsL = 5 mg/L, pH 6, 20 min, 40° C.
[10] = rRsL = 5 mg/L, pH 8, 20 min, 40° C.
[11] = rPpL 1 mg/L, pH 6, high concentration of N-hydroxyacetanilide

Q: Which “Bactericidal activity (reduction in living cell number)” value [1, 5] does the source give for `CC(=O)c1ccc(N(O)C(C)=O)cc1` [N1-(4-acetylphenyl)-N1-hydroxyacetamide] here?
A: 1.2 log CFU/ml

Q: For `CC(=O)N(O)c1ccc(C#N)cc1` [N1-(4-cyanophenyl)-N1-hydroxyacetamide], which “Bactericidal activity (reduction in living cell number)” value ([1]; rPpL = 5 mg/L, pH 6) is on record?
A: 1.7 log CFU/ml

Q: For `CC(=O)N(O)c1ccc(O)cc1` [N1-(4-hydroxyphenyl)-N1-hydroxyacetamide], which “Bactericidal activity (reduction in living cell number)” value [1, 5] is on record?
A: 3.7 log CFU/ml

Q: And the “Bactericidal activity (reduction in living cell number)” value [1, 6]?
A: 1.1 log CFU/ml

Q: Which “Bactericidal activity (reduction in living cell number)” value [1, 5] does the source give for `CC(=O)N(O)c1cccc([N+](=O)[O-])c1` [N1-hydroxy-N1-(3-nitrophenyl)acetamide] here?
A: 1.5 log CFU/ml

Q: And the “Bactericidal activity (reduction in living cell number)” value [1, 6]?
A: 1.1 log CFU/ml

Q: And the “Bactericidal activity (reduction in living cell number)” value ([1]; rPpL = 5 mg/L, pH 6)?
A: 1.6 log CFU/ml

Q: Which “Bactericidal activity (reduction in living cell number)” value [1, 5] does the source give for `CC(=O)N(O)c1ccc([N+](=O)[O-])cc1` [N1-hydroxy-N1-(4-nitrophenyl)acetamide] here?
A: 4.2 log CFU/ml

Q: And the “Bactericidal activity (reduction in living cell number)” value [1, 6]?
A: 1.2 log CFU/ml

Q: And the “Bactericidal activity (reduction in living cell number)” value ([1]; rPpL = 5 mg/L, pH 6)?
A: 6.7 log CFU/ml

Q: And the “Bactericidal activity (reduction in living cell number)” value ([1]; rPpL = 5 mg/L, pH 8)?
A: 1.7 log CFU/ml

Q: How did the “Bactericidal activity (reduction in living cell number)” value [1, 5] turn out when `N#Cc1ccc(C(=O)N(O)c2ccccc2)cc1` [N1-hydroxy-N1-phenyl-4-cyanobenzamide] was run?
A: 6.1 log CFU/ml

Q: What about the “Bactericidal activity (reduction in living cell number)” value [1, 6] of the same molecule?
A: 2.1 log CFU/ml

Q: And the “Bactericidal activity (reduction in living cell number)” value ([1]; rPpL = 5 mg/L, pH 6)?
A: 2.5 log CFU/ml

Q: What about the “Bactericidal activity (reduction in living cell number)” value [2, 7] of the same molecule?
A: 3.5 log CFU/ml

Q: And the “Bactericidal activity (reduction in living cell number)” value [2, 8]?
A: 6.5 log CFU/ml

Q: And the “Bactericidal activity (reduction in living cell number)” value [2, 9]?
A: 3.5 log CFU/ml

Q: What about the “Bactericidal activity (reduction in living cell number)” value [2, 10] of the same molecule?
A: 6.5 log CFU/ml

Q: For `COc1ccc(C(=O)N(O)c2ccccc2)cc1` [N1-hydroxy-N1-phenyl-4-methoxybenzamide], which “Bactericidal activity (reduction in living cell number)” value [1, 5] is on record?
A: 4.1 log CFU/ml

Q: What about the “Bactericidal activity (reduction in living cell number)” value ([1]; rPpL = 5 mg/L, pH 8) of the same molecule?
A: 4.8 log CFU/ml

Q: What about the “Bactericidal activity (reduction in living cell number)” value [2, 7] of the same molecule?
A: 5.9 log CFU/ml

Q: And the “Bactericidal activity (reduction in living cell number)” value [2, 8]?
A: 6.3 log CFU/ml

Q: What about the “Bactericidal activity (reduction in living cell number)” value [2, 9] of the same molecule?
A: 3.8 log CFU/ml

Q: And the “Bactericidal activity (reduction in living cell number)” value [2, 10]?
A: 4.6 log CFU/ml

Q: `O=C(c1ccc([N+](=O)[O-])cc1)N(O)c1ccccc1` [N1-hydroxy-N1-phenyl-4-nitrobenzamide] was tested. Which “Bactericidal activity (reduction in living cell number)” value [1, 6] did it give?
A: 1.4 log CFU/ml

Q: `CC(=O)N(O)c1ccccc1` [N-hydroxyacetanilide] was tested. Which “Bactericidal activity (dose-response)” value ([3]; rCcL 1 mg/L, pH 8) did it give?
A: significant bactericidal activity

Q: What about the “Bactericidal activity (dose-response)” value ([3]; rPpL 1 mg/L, pH 6) of the same molecule?
A: significant bactericidal activity

Q: What about the “Bactericidal activity (dose-response)” value ([4]; rCcL 1 mg/L, pH 8) of the same molecule?
A: significant bactericidal activity

Q: And the “Bactericidal activity (dose-response)” value ([4]; rPpL 1 mg/L, pH 6)?
A: significant bactericidal activity

Q: What about the “Bactericidal activity at high concentration of enhancing agent” value [4, 11] of the same molecule?
A: total kill

Q: And the Bactericidal activity ([1]; combined system: enhancing agent 0.2 mM, hydrogen peroxide 0.5 mM and rCiP 3 POXU/ml)?
A: total kill

Q: What about the Cell reduction ([1]; pH 6) of the same molecule?
A: approximately 10^6 CFU/ml

Q: What about the Cell reduction ([1]; pH 8) of the same molecule?
A: approximately 10^6 CFU/ml

Q: What about the Bactericidal activity ([1]; enhancing agent (0.2 mM) combined with hydrogen peroxide (0.5 mM), no enzyme) of the same molecule?
A: No bactericidal activity

Q: What about the Bactericidal activity ([1]; enhancing agent alone (0.2 mM), no enzyme, no hydrogen peroxide) of the same molecule?
A: No bactericidal activity

Q: What about the “Enhancing agent concentration at which bactericidal activity was obtained” value ([2]; combined with laccase (rPpL or rCcL, 1 mg/L), 20 min, 40° C.) of the same molecule?
A: above 200 μM

Q: What about the “Bactericidal activity (dose-response)” value ([2]; rCcL 1 mg/L, pH 8, 20 min, 40° C.) of the same molecule?
A: significant bactericidal activity

Q: What about the “Bactericidal activity (dose-response)” value ([2]; rPpL 1 mg/L, pH 6, 20 min, 40° C.) of the same molecule?
A: significant bactericidal activity

Q: What about the “Bactericidal activity at high concentration of enhancing agent” value [2, 11] of the same molecule?
A: total kill
